# Experimental data taken from the supplement of paper PMC10307832.
# Legend:
# Assay in all cases: relative viability (nuclei count vs DMSO), 5 days (fraction); higher = more cells survive
# Lestaurtinib + OSI-027 = compound: C[C@]12O[C@H](C[C@]1(O)CO)n1c3ccccc3c3c4c(c5c6ccccc6n2c5c31)CNC4=O [Lestaurtinib] + COc1cccc2cc(-c3nc([C@H]4CC[C@H](C(=O)O)CC4)n4ncnc(N)c34)[nH]c12 [OSI-027] (partner 0.5 µM)
# Procedure, shortened: (§1)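 Relative viability divides the nuclei count in treated wells by that in vehicle wells. Lung cancer cell lines were seeded in 1536-well plates, dosed by pin tool the next day, and fixed and stained after 5 days in one step with final 0.05% Triton X-100, 1% formaldehyde and 1 ug/ml Hoechst. Dosing was a single drug or a fixed anchor-drug dose plus five library-drug doses (not always all listed) in √10 steps, and values are medians of duplicate plates imaged at 4×.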
# Lestaurtinib + Alpelisib = compound: C[C@]12O[C@H](C[C@]1(O)CO)n1c3ccccc3c3c4c(c5c6ccccc6n2c5c31)CNC4=O [Lestaurtinib] + Cc1nc(NC(=O)N2CCC[C@H]2C(N)=O)sc1-c1ccnc(C(C)(C)C(F)(F)F)c1 [Alpelisib] (partner 2 µM)
# Procedure, shortened: as §1
# [1] = compound: C[C@]12O[C@H](C[C@]1(O)CO)n1c3ccccc3c3c4c(c5c6ccccc6n2c5c31)CNC4=O [Lestaurtinib] + C[C@@H](Oc1cc(-c2cnn(C3CCNCC3)c2)cnc1N)c1c(Cl)ccc(F)c1Cl [Crizotinib] (partner 1 µM)
# Procedure, shortened: as §1
# Lestaurtinib + Foretinib = compound: C[C@]12O[C@H](C[C@]1(O)CO)n1c3ccccc3c3c4c(c5c6ccccc6n2c5c31)CNC4=O [Lestaurtinib] + COc1cc2c(Oc3ccc(NC(=O)C4(C(=O)Nc5ccc(F)cc5)CC4)cc3F)ccnc2cc1OCCCN1CCOCC1 [Foretinib] (partner 0.25 µM)
# Procedure, shortened: as §1
Cell Line,relative viability (Lestaurtinib + OSI-027; first compound 0.005 µM),relative viability (Lestaurtinib + OSI-027; first compound 0.01581 µM),relative viability (Lestaurtinib + OSI-027; first compound 0.05 µM),relative viability (Lestaurtinib + OSI-027; first compound 0.1581 µM),relative viability (Lestaurtinib + OSI-027; first compound 0.5 µM),relative viability (Lestaurtinib + Alpelisib; first compound 0.005 µM),relative viability (Lestaurtinib + Alpelisib; first compound 0.01581 µM),relative viability (Lestaurtinib + Alpelisib; first compound 0.05 µM),relative viability (Lestaurtinib + Alpelisib; first compound 0.1581 µM),relative viability (Lestaurtinib + Alpelisib; first compound 0.5 µM),relative viability ([1]; first compound 0.005 µM),relative viability ([1]; first compound 0.01581 µM),relative viability ([1]; first compound 0.05 µM),relative viability ([1]; first compound 0.1581 µM),relative viability ([1]; first compound 0.5 µM),relative viability (Lestaurtinib + Foretinib; first compound 0.005 µM),relative viability (Lestaurtinib + Foretinib; first compound 0.01581 µM),relative viability (Lestaurtinib + Foretinib; first compound 0.05 µM),relative viability (Lestaurtinib + Foretinib; first compound 0.1581 µM),relative viability (Lestaurtinib + Foretinib; first compound 0.5 µM)
NCI-H522,0.816,0.791,0.679,0.709,0.572,,,,,,,,,,,,,,,
NCI-H1299,,,,,,1.14,1.05,0.559,0.614,0.713,0.912,0.953,0.542,0.68,0.467,1.07,1.14,0.68,0.832,0.671
NCI-H1395,0.546,0.655,0.5,0.482,0.374,1.15,1.14,0.795,0.813,0.483,,,,,,1.01,0.911,0.861,0.824,0.479
NCI-H1623,0.4,0.412,0.428,0.399,0.398,,,,,,,,,,,0.872,0.812,0.818,0.671,0.695
NCI-H1648,0.233,0.271,0.285,0.246,0.261,,,,,,,,,,,,,,,
NCI-H1650,0.642,0.829,0.594,0.652,0.357,,,,,,0.901,1.13,0.841,1.29,0.308,1.03,1.24,1.37,1.26,0.694
NCI-H1703,,,,,,0.293,0.288,0.283,0.2,0.117,0.81,0.524,0.263,0.257,0.0934,0.322,0.305,0.27,0.315,0.252
NCI-H1792,0.95,0.698,0.83,0.776,0.424,0.858,0.875,0.516,0.429,0.209,0.901,1.18,0.49,0.799,0.476,,,,,
NCI-H1793,0.291,0.257,0.242,0.274,0.183,0.874,0.761,0.588,0.546,0.494,,,,,,0.684,0.702,0.436,0.574,0.39
NCI-H2342,0.571,0.672,0.547,0.648,0.549,,,,,,,,,,,1.17,1.06,1.08,1.08,0.922
SW 900,0.561,0.702,0.623,0.522,0.527,,,,,,,,,,,0.719,0.891,1.17,0.868,0.793
